In patent US11793815B2, “Oxindoles and methods of use thereof” (ALIGOS THERAPEUTICS, INC., priority 2020, dated 2023):

What follows are compounds tested against T1, human thyroid receptor beta ligand-binding domain (LBD) (Homo sapiens, UniProt P10828) (assay: THR Biochemical Assay (Assay 1): TR-FRET thyroid receptor beta coactivator assay). Settings: GST-tagged thyroid receptor beta LBD 1 nM, fluorescein SRC2-2 coactivator peptide 200 nM, 1 hr at rt, TR-FRET ratio 520:495; read-out: Assay 1 (EC50, THR-beta agonist).
T1 construct: Thyroid receptor beta LBD was added to the plate at a final concentration of 1 nM; purchased Invitrogen
T1 sequence (P10828 217-461 limits assumed): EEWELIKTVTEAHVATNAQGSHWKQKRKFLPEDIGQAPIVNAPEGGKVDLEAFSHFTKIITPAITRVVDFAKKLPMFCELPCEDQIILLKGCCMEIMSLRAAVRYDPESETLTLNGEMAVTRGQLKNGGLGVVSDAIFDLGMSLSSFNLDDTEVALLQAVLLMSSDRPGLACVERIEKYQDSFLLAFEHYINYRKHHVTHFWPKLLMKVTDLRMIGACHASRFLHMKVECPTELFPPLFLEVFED
Text: THR Biochemical Assay (Assay 1)
The TR-FRET thyroid receptor beta coactivator assay was used with slight, optimized modifications of the manufacturer's protocol (Invitrogen). The assay uses a terbium-labeled anti-GST antibody, a glutathione-S-transferase (GST) tagged human thyroid receptor, beta or alpha, ligand-binding domain (LBD), and a fluorescein labeled SRC2-2 coactivator peptide. The antibody interacts with the LBD, where the agonist also binds, resulting in increased affinity for the SRC2-2 coactivator peptide causing energy transfer […] the acceptor fluorophore and a FRET emission shift from 495 to 520 nm. The energy transfer was detected as an increase in the fluorescence emission of the fluorescein acceptor, and a decrease in the fluorescence emission of the terbium donor. The assay was performed in a 384-well black plate in a final volume of 20 μL. Serial dilution of various test agonists was performed in DMSO (1% final DMSO concentration) and added to the test plate. Thyroid receptor beta LBD was added to the plate at a final concentration of 1 nM, followed by the mixture of the fluorescein labeled SRC2-2 coactivator peptide, and the terbium-labeled anti-GST antibody at final concentrations of 200 nM and 2 nM respectively. The assay was incubated for 1 hr at rt protected from light. The TR-FRET was then measured on a Victor multilabel reader (Perkin Elmer) using an excitation wavelength of 340 nm with emission filters of 495 nm and 520 nm. The assay was quantified by expressing a ratio (520:495) of the intensities, and the resulting activation curves; EC50 values were generated using a sigmoidal dose response (variable slope) equation in GraphPad™ Prism 8.0.

EC50 [nM]	Structure (SMILES)
50 to 250	Nc1nn(-c2cc(Cl)c(Oc3ccc4c(c3)C3(CC(F)(F)C3)C(=O)N4)c(Cl)c2)c(=O)[nH]c1=O [Compound 11, 6-amino-2-(3,5-dichloro-4-((3,3-difluoro-2′-oxospiro[cyclobutane-1,3′-indolin]-5′-yl)oxy)phenyl)-1,2,4-triazine-3,5(2H,4H)-dione]
< 50	CC1CC12C(=O)Nc1ccc(Oc3c(Cl)cc(NC(=O)C(=O)O)cc3Cl)cc12 (single isomer, unassigned) [Compound 34, 2-((3,5-dichloro-4-((2-methyl-2′-oxospiro[cyclopropane-1,3′-indolin]-5′-yl)oxy)phenyl)amino)-2-oxoacetic acid]
250 to 1000	Nc1nn(-c2cc(Cl)c(Oc3cnc4c(c3)C3(CC3)C(=O)N4)c(Cl)c2)c(=O)[nH]c1=O [Compound 45, 6-amino-2-(3,5-dichloro-4-((2′-oxo-1′,2′-dihydrospiro[cyclopropane-1,3′-pyrrolo[2,3-b]pyridin]-5′-yl)oxy)phenyl)-1,2,4-triazine-3,5(2H,4H)-dione]
< 50	O=C(Nc1cc(Cl)c(Oc2ccc3c(c2F)C2(CC2)C(=O)N3)c(Cl)c1)c1noc(=O)[nH]1 [Compound 40, N-(3,5-dichloro-4-((4′-fluoro-2′-oxospiro[cyclopropane-1,3′-indolin]-5′-yl)oxy)phenyl)-5-oxo-4,5-dihydro-1,2,4-oxadiazole-3-carboxamide]
< 50	CC1CC12C(=O)Nc1ccc(Oc3c(Cl)cc(-n4nc(N)c(=O)[nH]c4=O)cc3Cl)cc12 (single isomer, unassigned) [Compound 32, 6-amino-2-(3,5-dichloro-4-((2-methyl-2′-oxospiro[cyclopropane-1,3′-indolin]-5′-yl)oxy)phenyl)-1,2,4-triazine-3,5(2H,4H)-dione]
> 25000	CN1C(=O)C2(CC2)c2cc(Oc3c(Cl)cc(-n4nc(N)c(=O)[nH]c4=O)cc3Cl)ccc21 [Compound 26, 6-amino-2-(3,5-dichloro-4-((1′-methyl-2′-oxospiro[cyclopropane-1,3′-indolin]-5′-yl)oxy)phenyl)-1,2,4-triazine-3,5(2H,4H)-dione]
< 50	O=C(Nc1cc(Cl)c(Oc2ccc3c(c2)C2(CCC2)C(=O)N3)c(Cl)c1)c1noc(=O)[nH]1 [Compound 14, N-(3,5-dichloro-4-((2′-oxospiro[cyclobutane-1,3′-indolin]-5′-yl)oxy)phenyl)-5-oxo-4,5-dihydro-1,2,4-oxadiazole-3-carboxamide]
< 50	Cn1nc(-c2cc(Cl)c(Oc3ccc4c(c3)C3(CCC3)C(=O)N4)c(Cl)c2)c(=O)[nH]c1=O [Compound 16, 6-(3,5-dichloro-4-((2′-oxospiro[cyclobutane-1,3′-indolin]-5′-yl)oxy)phenyl)-2-methyl-1,2,4-triazine-3,5(2H,4H)-dione]
< 50	Cc1c(Oc2c(Cl)cc(-c3nn(C)c(=O)[nH]c3=O)cc2Cl)ccc2c1C1(CC1)C(=O)N2 [Compound 37, 6-(3,5-dichloro-4-((4′-methyl-2′-oxospiro[cyclopropane-1,3′-indolin]-5′-yl)oxy)phenyl)-2-methyl-1,2,4-triazine-3,5(2H,4H)-dione]
> 25000	Cc1cc(-n2nc(N)c(=O)[nH]c2=O)cc(C)c1Cc1ccc2c(c1)C1(CC(F)(F)C1)C(=O)N2 [Compound 8, 6-amino-2-(4-{3,3-difluoro-2′-oxo-1′H-spiro[cyclobutane-1,3′-indol]-5′-ylmethyl}-3,5-dimethylphenyl)-4H-1,2,4-triazine-3,5-dione]
< 50	Cc1cc(-n2nc(N)c(=O)[nH]c2=O)cc(C)c1Oc1ccc2c(c1)C1(CCCC1)C(=O)N2 [Compound 28, 6-amino-2-(3,5-dimethyl-4-((2′-oxospiro[cyclopentane-1,3′-indolin]-5′-yl)oxy)phenyl)-1,2,4-triazine-3,5(2H,4H)-dione]
< 50	Cc1cc(-n2nc(N)c(=O)[nH]c2=O)cc(C)c1Oc1ccc2c(c1)C1(CCC1)C(=O)N2 [Compound 24, 6-amino-2-(3,5-dimethyl-4-((2′-oxospiro[cyclobutane-1,3′-indolin]-5′-yl)oxy)phenyl)-1,2,4-triazine-3,5(2H,4H)-dione]
